Reference: US8486977B2, “1,2,3-triazole derivatives for use as stearoyl-CoA desaturase inhibitors” (GlaxoSmithKline LLC, priority 2007, dated 2013)

melting point	Structure (SMILES)
124.7 °C	Cc1c(C(=O)Nc2cccc(CO)c2)nnn1Cc1cccc(F)c1 [Example 89, 1-[(3-Fluorophenyl)methyl]-N-[3-(hydroxymethyl)phenyl]-5-methyl-1H-1,2,3-triazole-4-carboxamide]
167 °C	CCOC(=O)c1ccc(NC(=O)c2nnn(Cc3ccc(Cl)c(Cl)c3)c2C)cc1 [Example 48, Ethyl 4-[({1-[(3,4-dichlorophenyl)methyl]-5-methyl-1H-1,2,3-triazol-4-yl}carbonyl)amino]benzoate]
114 °C (dec.)	Cc1c(C(=O)Nc2ccc(OCCC(C)C)cc2)nnn1Cc1ccc(C(C)C)cc1
203 °C	Cc1c(C(=O)Nc2ccc(CO)c(CO)c2)nnn1Cc1ccc(Cl)c(Cl)c1 [Example 58, N-[3,4-bis(Hydroxymethyl)phenyl]-1-[(3,4-dichlorophenyl)methyl]-5-methyl-1H-1,2,3-triazole-4-carboxamide]
148 °C	COC(=O)c1ccc(NC(=O)c2nnn(Cc3ccc(Cl)c(Cl)c3)c2C)cc1C(=O)OC [Example 46, Dimethyl 4-[({1-[(3,4-dichlorophenyl)methyl]-5-methyl-1H-1,2,3-triazol-4-yl}carbonyl)amino]-1,2-benzenedicarboxylate]
194.5 °C	Cc1c(C(=O)Nc2cc(CO)cc(CO)c2)nnn1Cc1ccc(Cl)c(Cl)c1 [Example 52, N-[3,5-bis(Hydroxymethyl)phenyl]-1-[(3,4-dichlorophenyl)methyl]-5-methyl-1H-1,2,3-triazole-4-carboxamide]
203.4 °C	CC(=O)Nc1cccc(NC(=O)c2nnn(Cc3ccc(Cl)c(Cl)c3)c2C)c1 [Example 21, N-[3-(Acetylamino)phenyl]-1-[(3,4-dichlorophenyl)methyl]-5-methyl-1H-1,2,3-triazole-4-carboxamide]
220 °C	Cc1c(C(=O)Nc2cc(CO)ccc2Cl)nnn1Cc1ccc(Cl)c(Cl)c1 [Example 56, N-[2-Chloro-5-(hydroxymethyl)phenyl]-1-[(3,4-dichlorophenyl)methyl]-5-methyl-1H-1,2,3-triazole-4-carboxamide]
144 °C	Cc1c(C(=O)Nc2ccc(CCO)cc2)nnn1Cc1ccc(Cl)c(Cl)c1 [Example 50, 1-[(3,4-Dichlorophenyl)methyl]-N-[4-(2-hydroxyethyl)phenyl]-5-methyl-1H-1,2,3-triazole-4-carboxamide]
125 °C	Cc1c(C(=O)Nc2ccc(OCc3ccccc3)cc2)nnn1Cc1ccccc1 [Example 7, 5-Methyl-1-(phenylmethyl)-N-{4-[(phenylmethyl)oxy]phenyl}-1H-1,2,3-triazole-4-carboxamide]
124 °C	Cc1c(C(=O)Nc2ccc(OCCC(C)C)cc2)nnn1Cc1ccccc1
131.8 °C	CCOC(=O)c1cccc(NC(=O)c2nnn(Cc3ccc(Cl)c(Cl)c3)c2C)c1 [Example 20, Ethyl 3-[({1-[(3,4-dichlorophenyl)methyl]-5-methyl-1H-1,2,3-triazol-4-yl}carbonyl)amino]benzoate]
105.8 °C	Cc1c(C(=O)Nc2cccc(CO)c2)nnn1Cc1ccccc1 [Example 37, N-[3-(Hydroxymethyl)phenyl]-5-methyl-1-(phenylmethyl)-1H-1,2,3-triazole-4-carboxamide]
149.1 °C	Cc1c(C(=O)Nc2ccc(CO)cc2)nnn1Cc1ccccc1 [Example 38, N-[4-(Hydroxymethyl)phenyl]-5-methyl-1-(phenylmethyl)-1H-1,2,3-triazole-4-carboxamide]
267.6 °C	Cc1c(C(=O)Nc2cccc(C(=O)O)c2)nnn1Cc1ccc(Cl)c(Cl)c1 [Example 63, 3-[({1-[(3,4-Dichlorophenyl)methyl]-5-methyl-1H-1,2,3-triazol-4-yl}carbonyl)amino]benzoic acid]
134.3 °C	Cc1c(C(=O)Nc2ccc(CO)cc2)nnn1Cc1cccc(F)c1 [Example 91, 1-[(3-Fluorophenyl)methyl]-N-[4-(hydroxymethyl)phenyl]-5-methyl-1H-1,2,3-triazole-4-carboxamide]
213 °C	COC(=O)c1ccc(OC)c(NC(=O)c2nnn(Cc3cc(Cl)cc(Cl)c3)c2C)c1 [Example 41, Methyl 3-[({1-[(3,5-dichlorophenyl)methyl]-5-methyl-1H-1,2,3-triazol-4-yl}carbonyl)amino]-4-(methyloxy)benzoate]
183.7 °C	CNC(=O)c1ccc(NC(=O)c2nnn(Cc3ccc(Cl)c(Cl)c3)c2C)cc1 [Example 19, 1-[(3,4-Dichlorophenyl)methyl]-5-methyl-N-{4-[(methylamino)carbonyl]phenyl}-1H-1,2,3-triazole-4-carboxamide]
> 260 °C	Cc1c(C(=O)Nc2ccc(C(=O)O)cc2)nnn1Cc1ccc(Cl)c(Cl)c1 [Example 66, 4-[({1-[(3,4-Dichlorophenyl)methyl]-5-methyl-1H-1,2,3-triazol-4-yl}carbonyl)amino]benzoic acid]
175.6 °C	Cc1c(C(=O)Nc2ccc(O)c(CO)c2)nnn1Cc1ccc(Cl)c(Cl)c1 [Example 26, 1-[(3 4 Dichlorophenyl)methyl]-N-[4-hydroxy-3-(hydroxymethyl)phenyl]-5-methyl-1H-1,2,3-triazole-4-carboxamide]
58 °C	Cc1c(C(=O)Nc2cccc(C(C)(C)O)c2)nnn1Cc1ccc(Cl)c(Cl)c1 [Example 76, 1-[(3,4-Dichlorophenyl)methyl]-N-[3-(1-hydroxy-1-methylethyl)phenyl]-5-methyl-1H-1,2,3-triazole-4-carboxamide]
168.7 °C	Cc1c(C(=O)Nc2ccc(OCc3ccccc3)cc2)nnn1Cc1ccc(Br)cc1 [Example 3, 1-[(4-Bromophenyl)methyl]-5-methyl-N-{4-[(phenylmethyl)oxy]phenyl}-1H-1,2,3-triazole-4-carboxamide]
192.7 °C	Cc1c(C(=O)Nc2cc(CO)cc(CO)c2)nnn1Cc1cccc(Cl)c1 [Example 61, -[3,5-bis(Hydroxymethyl)phenyl]-1-[(3-chlorophenyl)methyl]-5-methyl-1H-1,2,3-triazole-4-carboxamide]
188.4 °C	CC(=O)NCc1cccc(NC(=O)c2nnn(Cc3ccc(Cl)c(Cl)c3)c2C)c1 [Example 43, N-{3-[(Acetylamino)methyl]phenyl}-1-[(3,4-dichlorophenyl)methyl]-5-methyl-1H-1,2,3-triazole-4-carboxamide]
218 °C	Cc1c(C(=O)Nc2ccc(-c3ncco3)cc2)nnn1Cc1ccc(Cl)c(Cl)c1 [Example 15, 1-[(3,4-Dichlorophenyl)methyl]-5-methyl-N-[4-(1,3-oxazol-2-yl)phenyl]-1H-1,2,3-triazole-4-carboxamide]
173.1 °C	Cc1c(C(=O)Nc2cc(CO)cc(CO)c2)nnn1Cc1cccc(F)c1 [Example 84, N-[3,5-bis(Hydroxymethyl)phenyl]-1-[(3-fluorophenyl)methyl]-5-methyl-1H-1,2,3-triazole-4-carboxamide]
202.4 °C	CC(=O)Nc1ccc(NC(=O)c2nnn(Cc3ccc(Cl)c(Cl)c3)c2C)cc1 [Example 22, N-[4-(Acetylamino)phenyl]-1-[(3,4-dichlorophenyl)methyl]-5-methyl-1H-1,2,3-triazole-4-carboxamide]
148.2 °C	Cc1c(C(=O)Nc2cc(CO)cc(CO)c2)nnn1Cc1ccccc1 [Example 60, N-[3,5-bis(Hydroxymethyl)phenyl]-5-methyl-1-(phenylmethyl)-1H-1,2,3-triazole-4-carboxamide]
